# Measured values from patent US8173392B2, “In vivo incorporation of unnatural amino acids” (The Scripps Research Institute, priority 2001, dated 2012).
# Key:
# [1] = tested on: glutamine uptake pathway of DH10B; assay: complementation of toxic glutamine alleles S27 and S47 (cellular uptake); assay type: cell-based, E. coli; details: 2 mM, complementation of S27 (100 μM) and S47 (30 μM)
# Text: To identify possible uptake pathways for toxic amino acids, toxicity assays are optionally repeated at IC50 levels, e.g., in media supplemented with an excess of a structurally similar natural amino acid. For toxic amino acids, the presence of excess natural amino acid typically rescues the ability of the cells to grow in the presence of the toxin, presumably because the natural amino acid effectively outcompetes the toxin for either cellular uptake or for binding to essential enzymes. In these cases, the toxic amino acid is optionally assigned a possible uptake pathway and labeled a “lethal allele” whose complementation is required for cell survival. These lethal alleles are extremely useful for assaying the ability of cells to uptake nontoxic unnatural amino acids. […] A lack of complementation is inconclusive. For example studies and conclusions see the examples provided below.
# For toxic amino acids, the presence of excess natural amino acid rescued the ability of the cells to grow in the presence of the toxin, presumably because the natural amino acid effectively outcompeted the toxin for either cellular uptake or for binding to essential enzymes. […]
# Using this method, the ability of 22 glutamine and glutamic acid analogs to be taken up by DH10B was evaluated. […]
# [2] = tested on: DH10B harboring pBLAM-YQRS and pACYsupA38; assay: cell toxicity screen of unnatural amino acids in glycerol minimal media; assay type: cell-based, E. coli; details: concentration used as lethal allele at IC50 level
# Text: For example, a variety of unnatural amino acids are optionally screened in minimal media for toxicity to cells. Toxicities are typically sorted into five groups: (1) no toxicity, in which no significant change in doubling times occurs; (2) low toxicity, in which doubling times increase by less than about 10%; (3) moderate toxicity, in which doubling times increase by about 10% to about 50%; (4) high toxicity, in which doubling times increase by about 50% to about 100%; and (5) extreme toxicity, in which doubling times increase by more than about 100%. […] The toxicity of the amino acids scoring as highly or extremely toxic is typically measured as a function of their concentration to obtain IC50 values.
# A variety of unnatural amino acids and α-hydroxy acids of interest, obtained commercially or by short syntheses from available starting materials (I. Shin, B. Herberich, A. Varvak, T. Magliery, P. Schultz, unpublished results, were screened for cell toxicity). […] Each amino acid wasscreened at 1 mM in glycerol minimal media for toxicity to cells, e.g., to DH10B harboring pBLAM-YQRS and pACYsupA38.
# The toxicity of amino acids scoring as highly or extremely toxic is typically measured as a function of their concentration to obtain IC50 values. […]
compound,measurement,setting,value
NNC(=O)CCC(N)C(=O)O (centres unmarked) [S47],"cellular uptake, possibly via the glutamine uptake pathway",[1],uptaken by cells
same,IC50,[2],30 µM
